Data as given in ChEMBL document CHEMBL6127065, “Design and Synthesis of c-Met and HDAC Dual Inhibitors for the Treatment of Breast Cancer” (ACS Med Chem Lett, 2024).
One block for each compound: values may come before it.

How the values were obtained:
MDA-MB-231 [1] = test: Antiproliferative activity against human MDA-MB-231 cells assessed as reduction in cell growth incubated for 72 hrs by MTT assay; details: MDA-MB-231, 72 h
MDA-MB-453 = test: Antiproliferative activity against human MDA-MB-453 cells assessed as reduction in cell growth incubated for 72 hrs by MTT assay; details: MDA-MB-453, 72 h
MDA-MB-468 = test: Antiproliferative activity against human MDA-MB-468 cells assessed as reduction in cell growth incubated for 72 hrs by MTT assay; details: MDA-MB-468, 72 h
MDA-MB-231 [2] = test: Induction of apoptosis in human MDA-MB-231 cells assessed as early apoptotic cells at 2.5 uM incubated for 48 hrs by AnnexinV-FITC/PI staining based flow cytometry (reference value: 1.6 to 2.41%); type: functional
MDA-MB-231 [3] = test: Induction of cell cycle arrest in human MDA-MB-231 cells assessed as accumulation of cells at G0/G1 phase at 10 uM incubated for 48 hrs by PI staining based flow cytometry (reference value: 55.36 to 55.82%); type: functional
MDA-MB-231 [4] = test: Induction of apoptosis in human MDA-MB-231 cells assessed as viable cells at 2.5 uM incubated for 48 hrs by AnnexinV-FITC/PI staining based flow cytometry (reference value: 91.22 to 92.84%); type: functional; details: read-out: Activity
MDA-MB-231 [5] = test: Induction of apoptosis in human MDA-MB-231 cells assessed as viable cells at […] uM incubated for 48 hrs by AnnexinV-FITC/PI staining based flow cytometry (reference value: 91.22 to 92.84%); type: functional; details: read-out: Activity
MDA-MB-231 [6] = test: Induction of cell cycle arrest in human MDA-MB-231 cells assessed as accumulation of cells at S phase at 25 uM incubated for 48 hrs by PI staining based flow cytometry (reference value: 12.56 to 14.76%); type: functional
MDA-MB-231 [7] = test: Induction of apoptosis in human MDA-MB-231 cells assessed as early apoptotic cells at 5 uM incubated for 48 hrs by AnnexinV-FITC/PI staining based flow cytometry (reference value: 1.6 to 2.41%); type: functional
MDA-MB-231 [8] = test: Induction of cell cycle arrest in human MDA-MB-231 cells assessed as accumulation of cells at S phase at 10 uM incubated for 48 hrs by PI staining based flow cytometry (reference value: 12.56 to 14.76%); type: functional
MDA-MB-231 [9] = test: Induction of apoptosis in human MDA-MB-231 cells assessed as early apoptotic cells at 10 uM incubated for 48 hrs by AnnexinV-FITC/PI staining based flow cytometry (reference value: 1.6 to 2.41%); type: functional
MDA-MB-231 [10] = test: Induction of cell cycle arrest in human MDA-MB-231 cells assessed as accumulation of cells at G0/G1 phase at 1 uM incubated for 48 hrs by PI staining based flow cytometry (reference value: 55.36 to 55.82%); type: functional
MDA-MB-231 [11] = test: Induction of cell cycle arrest in human MDA-MB-231 cells assessed as accumulation of cells at G2/M phase at 1 uM incubated for 48 hrs by PI staining based flow cytometry (reference value: 29.42 to 32.08%); type: functional
MDA-MB-231 [12] = test: Induction of apoptosis in human MDA-MB-231 cells assessed as necrotic cells at 2.5 uM incubated for 48 hrs by AnnexinV-FITC/PI staining based flow cytometry (reference value: 1.79 to 2.53%); type: functional
MDA-MB-231 [13] = test: Induction of apoptosis in human MDA-MB-231 cells assessed as viable cells at 5 uM incubated for 48 hrs by AnnexinV-FITC/PI staining based flow cytometry (reference value: 91.22 to 92.84%); type: functional; details: read-out: Activity
MDA-MB-231 [14] = test: Induction of cell cycle arrest in human MDA-MB-231 cells assessed as accumulation of cells at G2/M phase at 25 uM incubated for 48 hrs by PI staining based flow cytometry (reference value: 29.42 to 32.08%); type: functional
MDA-MB-231 [15] = test: Induction of apoptosis in human MDA-MB-231 cells assessed as early apoptotic cells at […] uM incubated for 48 hrs by AnnexinV-FITC/PI staining based flow cytometry (reference value: 1.6 to 2.41%); type: functional; details: 1.25 µM
MDA-MB-231 [16] = test: Induction of cell cycle arrest in human MDA-MB-231 cells assessed as accumulation of cells at G0/G1 phase at 2.5 uM incubated for 48 hrs by PI staining based flow cytometry (reference value: 55.36 to 55.82%); type: functional
MDA-MB-231 [17] = test: Induction of apoptosis in human MDA-MB-231 cells assessed as late apoptotic cells at […] uM incubated for 48 hrs by AnnexinV-FITC/PI staining based flow cytometry (reference value: 3.77 to 3.84%); type: functional; details: 1.25 µM
MDA-MB-231 [18] = test: Induction of cell cycle arrest in human MDA-MB-231 cells assessed as accumulation of cells at S phase at 2.5 uM incubated for 48 hrs by PI staining based flow cytometry (reference value: 12.56 to 14.76%); type: functional
MDA-MB-231 [19] = test: Induction of apoptosis in human MDA-MB-231 cells assessed as late apoptotic cells at 2.5 uM incubated for 48 hrs by AnnexinV-FITC/PI staining based flow cytometry (reference value: 3.77 to 3.84%); type: functional
MDA-MB-231 [20] = test: Induction of apoptosis in human MDA-MB-231 cells assessed as viable cells at 10 uM incubated for 48 hrs by AnnexinV-FITC/PI staining based flow cytometry (reference value: 91.22 to 92.84%); type: functional; details: read-out: Activity
[21] = molecular target: Hepatocyte growth factor receptor (Homo sapiens, UniProt P08581); test: Inhibition of c-Met (unknown origin) using Poly(Glu:Tyr)(4:1) and ATP as substrate incubated for 45 mins by Kinase-Glo Max reagent based luminescence analysis
[22] = Cytotoxicity against human MCF-10A cells assessed as reduction in cell viability incubated for 72 hrs by MTT assay; type: toxicity, cell-based
MDA-MB-231 [23] = test: Induction of cell cycle arrest in human MDA-MB-231 cells assessed as accumulation of cells at S phase at 1 uM incubated for 48 hrs by PI staining based flow cytometry (reference value: 12.56 to 14.76%); type: functional
MDA-MB-231 [24] = test: Induction of apoptosis in human MDA-MB-231 cells assessed as late apoptotic cells at 5 uM incubated for 48 hrs by AnnexinV-FITC/PI staining based flow cytometry (reference value: 3.77 to 3.84%); type: functional
MDA-MB-231 [25] = test: Induction of cell cycle arrest in human MDA-MB-231 cells assessed as accumulation of cells at G0/G1 phase at 25 uM incubated for 48 hrs by PI staining based flow cytometry (reference value: 55.36 to 55.82%); type: functional
MDA-MB-231 [26] = test: Induction of apoptosis in human MDA-MB-231 cells assessed as necrotic cells at […] uM incubated for 48 hrs by AnnexinV-FITC/PI staining based flow cytometry (reference value: 1.79 to 2.53%); type: functional; details: 1.25 µM
MDA-MB-231 [27] = test: Induction of apoptosis in human MDA-MB-231 cells assessed as necrotic cells at 10 uM incubated for 48 hrs by AnnexinV-FITC/PI staining based flow cytometry (reference value: 1.79 to 2.53%); type: functional
MDA-MB-231 [28] = test: Induction of cell cycle arrest in human MDA-MB-231 cells assessed as accumulation of cells at G2/M phase at 2.5 uM incubated for 48 hrs by PI staining based flow cytometry (reference value: 29.42 to 32.08%); type: functional
MDA-MB-231 [29] = test: Induction of cell cycle arrest in human MDA-MB-231 cells assessed as accumulation of cells at G2/M phase at 10 uM incubated for 48 hrs by PI staining based flow cytometry (reference value: 29.42 to 32.08%); type: functional
MDA-MB-231 [30] = test: Inhibition of colony formation in human MDA-MB-231 cells at 0.5 to 10 uM incubated for 7 days by crystal violet staining based analysis; type: functional, cell-based; details: dose 0.5-10 µM, time 7.0 day
MDA-MB-231 [31] = test: Induction of apoptosis in human MDA-MB-231 cells assessed as late apoptotic cells at 10 uM incubated for 48 hrs by AnnexinV-FITC/PI staining based flow cytometry (reference value: 3.77 to 3.84%); type: functional
MDA-MB-231 [32] = test: Induction of apoptosis in human MDA-MB-231 cells assessed as necrotic cells at 5 uM incubated for 48 hrs by AnnexinV-FITC/PI staining based flow cytometry (reference value: 1.79 to 2.53%); type: functional

Sequence of Hepatocyte growth factor receptor (P08581 whole entry): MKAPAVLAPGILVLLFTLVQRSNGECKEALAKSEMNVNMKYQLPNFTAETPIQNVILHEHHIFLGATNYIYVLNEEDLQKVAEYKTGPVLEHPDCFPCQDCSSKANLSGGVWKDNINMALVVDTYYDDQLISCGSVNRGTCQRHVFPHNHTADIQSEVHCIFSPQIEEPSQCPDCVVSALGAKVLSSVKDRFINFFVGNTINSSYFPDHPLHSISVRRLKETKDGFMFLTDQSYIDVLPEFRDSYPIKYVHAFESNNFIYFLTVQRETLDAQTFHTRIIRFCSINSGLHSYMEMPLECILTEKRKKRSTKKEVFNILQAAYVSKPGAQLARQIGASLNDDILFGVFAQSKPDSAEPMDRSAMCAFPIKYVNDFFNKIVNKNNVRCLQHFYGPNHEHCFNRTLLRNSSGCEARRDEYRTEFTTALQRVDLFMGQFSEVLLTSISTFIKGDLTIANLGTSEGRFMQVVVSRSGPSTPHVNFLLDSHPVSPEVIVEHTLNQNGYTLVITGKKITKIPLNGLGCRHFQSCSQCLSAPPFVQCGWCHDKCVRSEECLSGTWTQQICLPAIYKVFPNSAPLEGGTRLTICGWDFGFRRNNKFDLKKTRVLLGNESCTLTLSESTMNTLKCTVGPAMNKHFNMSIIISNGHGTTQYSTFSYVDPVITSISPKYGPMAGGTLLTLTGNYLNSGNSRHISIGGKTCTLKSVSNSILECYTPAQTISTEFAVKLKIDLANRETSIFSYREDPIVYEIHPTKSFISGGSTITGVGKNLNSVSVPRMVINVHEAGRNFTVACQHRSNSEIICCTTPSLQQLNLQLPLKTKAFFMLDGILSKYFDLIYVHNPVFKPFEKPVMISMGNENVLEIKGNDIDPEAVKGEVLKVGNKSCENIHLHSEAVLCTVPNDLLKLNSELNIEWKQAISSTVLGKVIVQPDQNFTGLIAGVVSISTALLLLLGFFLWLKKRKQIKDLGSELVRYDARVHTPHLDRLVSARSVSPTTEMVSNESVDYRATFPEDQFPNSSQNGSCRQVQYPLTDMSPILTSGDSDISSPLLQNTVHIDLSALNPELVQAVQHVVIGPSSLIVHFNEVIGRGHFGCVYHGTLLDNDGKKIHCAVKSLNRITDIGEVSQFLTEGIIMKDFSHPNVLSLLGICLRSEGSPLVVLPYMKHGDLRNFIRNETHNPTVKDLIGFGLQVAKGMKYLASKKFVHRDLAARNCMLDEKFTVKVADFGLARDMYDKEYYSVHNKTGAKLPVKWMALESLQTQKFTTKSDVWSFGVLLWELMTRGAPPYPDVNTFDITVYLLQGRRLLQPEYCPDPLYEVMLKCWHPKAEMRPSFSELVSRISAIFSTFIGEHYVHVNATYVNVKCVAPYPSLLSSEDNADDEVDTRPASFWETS

Compound: CC(c1ccc2ncccc2c1)n1nnc2ncc(N3CCN(CCCC(=O)Nc4ccc(F)cc4N)CC3)nc21 (stereo not given)
- IC50 (MDA-MB-231 [1]): 26.6 µM
- IC50 (MDA-MB-453): 31.1 µM
- IC50 (MDA-MB-468): 12.1 µM

Compound: CC(c1ccc2ncccc2c1)n1nnc2ncc(N3CCN(Cc4ccc(C(=O)Nc5ccc(F)cc5N)cc4)CC3)nc21 (stereo not given)
- IC50 (MDA-MB-231 [1]): 5.91 µM
- IC50 (MDA-MB-453): 6.28 µM
- IC50 (MDA-MB-468): 4.11 µM

Compound: CC(c1ccc2ncccc2c1)n1nnc2ncc(N3CCN(Cc4ccc(CC(=O)Nc5ccccc5N)cc4)CC3)nc21 (stereo not given)
- IC50 (MDA-MB-231 [1]): 8.64 µM
- IC50 (MDA-MB-453): 8.94 µM
- IC50 (MDA-MB-468): 6.35 µM

Compound: CC(c1ccc2ncccc2c1)n1nnc2ncc(N3CCN(Cc4ccc(/C=C/C(=O)Nc5ccc(F)cc5N)cc4)CC3)nc21 (stereo not given)
- Activity (MDA-MB-231 [2]): 3.22%
- Activity (MDA-MB-231 [3]): 72.67%
- viability at 2.5 µM (MDA-MB-231 [4]): 87.4%
- viability at 1.25 µM (MDA-MB-231 [5]): 88.8%
- Activity (MDA-MB-231 [6]): 12.08%
- Activity (MDA-MB-231 [7]): 2.65%
- Activity (MDA-MB-231 [8]): 12.11%
- IC50 (MDA-MB-231 [1]): 1.63 µM
- Activity (MDA-MB-231 [9]): 3.12%
- Activity (MDA-MB-231 [10]): 68.63%
- Activity (MDA-MB-231 [11]): 21.12%
- IC50 (MDA-MB-453): 3.88 µM
- Activity (MDA-MB-231 [12]): 2.21%
- viability at 5 µM (MDA-MB-231 [13]): 87.1%
- Activity (MDA-MB-231 [14]): 13.48%
- Activity (MDA-MB-231 [15]): 2%
- Activity (MDA-MB-231 [16]): 71%
- Activity (MDA-MB-231 [17]): 5.18%
- Activity (MDA-MB-231 [18]): 9.97%
- Activity (MDA-MB-231 [19]): 7.16%
- viability at 10 µM (MDA-MB-231 [20]): 85.2%
- IC50 [21]: 54.9 nM
- IC50 at 72 h [22]: > 25 µM
- Activity (MDA-MB-231 [23]): 10.25%
- Activity (MDA-MB-231 [24]): 8.25%
- Activity (MDA-MB-231 [25]): 74.44%
- Activity (MDA-MB-231 [26]): 4.05%
- IC50 (MDA-MB-468): 1.25 µM
- Activity (MDA-MB-231 [27]): 2.15%
- Activity (MDA-MB-231 [28]): 18.03%
- Activity (MDA-MB-231 [29]): 15.22%
- inhibition (MDA-MB-231 [30]): Dose-Dependent Effect
- Activity (MDA-MB-231 [31]): 9.5%
- Activity (MDA-MB-231 [32]): 1.98%

The remaining lines, values ahead:

- IC50 [21]: 1.42 nM
Compound: C[C@@H](c1ccc2nccn2c1)n1nnc2ncc(-c3cnn(C)c3)nc21 [SAVOLITINIB]

- IC50 (MDA-MB-231 [1]): 18.4 µM
- IC50 (MDA-MB-453): 22.1 µM
- IC50 (MDA-MB-468): 12.2 µM
Compound: CC(c1ccc2ncccc2c1)n1nnc2ncc(N3CCN(CC(=O)Nc4ccc(F)cc4N)CC3)nc21 (stereo not given)

- IC50 (MDA-MB-231 [1]): 22.7 µM
- IC50 (MDA-MB-453): 27.6 µM
- IC50 (MDA-MB-468): 9.15 µM
Compound: CC(c1ccc2ncccc2c1)n1nnc2ncc(N3CCN(CCC(=O)Nc4ccc(F)cc4N)CC3)nc21 (stereo not given)
